Assay results reported in patent US8906925B2, “Pyrido[4,3-B]indoles containing rigid moieties” (Medivation Technologies, Inc., priority 2008, dated 2014).

Key:
[1] = system: Long-Evans rats; test: 5-choice serial reaction time task (5CSRTT); format: in vivo, rat; conditions: 0.1, 0.3 and 1.0 mg/kg p.o.
Source text: Attention and impulsivity are characteristic of several disease states. The continuous performance test (CPT), used in humans, is capable of detecting attention deficts in a number of disorders, including attention deficit hyperactivity disorder, schizophrenia and mild cognitive impairment. The pre-clinical analogue of the CPT is the 5-choice serial reaction time task (5CSRTT). In this operant-based test, rats are required to be attentive and withhold responding while they monitor 5 apertures for the appearance of a brief stimulus light in one of the apertures. The brief illumination of the stimulus light in the 5CSRTT is analogous to the appearance of the “correct” letters in the CPT in humans. Upon observing the stimulus light, the rat must nose-poke in the corresponding aperture to receive a food reward. The 5CSRTT allows the measurement of similar behavioral responses as the CPT, including accuracy, speed of responding, impulsive and compulsive responding.
Thirteen male Long-Evans rats (275-300 g) were obtained from Harlan Laboratories, Indianapolis, Ind. At the time of testing for the current study, the rats were approximately 16-18 months old. Upon arrival, the rats were assigned unique identification numbers (tail marked). […]

[2] = system: C57Bl/6J mice; test: Elevated plus maze (EPM) test; format: in vivo, mouse; conditions: 0.03, 0.1, and 1 mg/kg, oral
Source text: This study aimed to test the anxiolytic properties of Compound No. 90 using the elevated plus maze (EPM) test in C57Bl/6J mice.
Male C57Bl/6J mice from Jackson Laboratories (Bar Harbor, Me.) were used for the […]. Mice were received at 6-weeks of age. Upon receipt, mice were assigned unique identification numbers (tail marked) and were group housed with 4 mice/cage in OPTI mouse ventilated cages. All animals remained housed in groups of four during the remainder of the study. All mice were acclimated to the colony room for approximately 2 week prior to testing and were subsequently tested at an average age of 8 weeks of age. During the period of acclimation, mice and rats were examined on a regular basis, handled, and weighed to assure adequate health and suitability. Animals were maintained on a 12 h/12 h light/dark cycle. The room temperature was maintained between 20 and 23° C. with a relative humidity maintained between 30% and 70%. Chow and water were provided ad libitum for the duration of the study. In each test, animals were randomly assigned across treatment groups. […]
The elevated plus maze test assessed anxiety. […] The time spent, distance traveled and entries in each arm were automatically recorded by the computer. […]
Data were analyzed using analysis of variance (ANOVA) followed by Fisher's LSD post hoc analysis when appropriate. […]

## C/C(=C\n1c2c(c3cc(Cl)ccc31)CN(C)CC2)c1ccncc1 [Compound 90, (E)-8-chloro-2,3,4,5-tetrahydro-2-methyl-5-(2-(pyridin-4-yl)prop-1-enyl)-1H-pyrido[4,3-b]indole]
[1]
  impulsivity-like and perserverative-like behavior: reduces
[2]
  anxiolytic-like effect in the EPM test compared to vehicle: did not exert any anxiolytic-like effect
